{"source": "patent US20250268884A1", "about": "“Deuterated Domperidone for Treating Gastroparesis” (CinDome Pharma, Inc., priority 2022, published 2025)", "key": {"[1]": {"tested_on": "cardiac repolarization (QTcF) in healthy subjects", "details": "human, in vivo"}, "[2]": {"tested_on": "adults with idiopathic or diabetic gastroparesis", "assay": "ANMS GCSI-DD total and subscale scores, protocol-specified scoring method, Phase 2a", "format": "in vivo, human", "design": "key to ANMS GCSI-DD total score, Day 14/EOT, mean / ANMS GCSI-DD nausea/vomiting subscale score, Day 14/EOT, mean / ANMS GCSI-DD postprandial fullness/early satiety subscale score, Day 14/EOT, mean / ANMS GCSI-DD bloating subscale score, Day 14/EOT, mean: symptoms rated 0 (none) to 4 (very severe)", "procedure": "Subjects were Evaluated as Follows: • Days −28 to −11: Screening procedures were performed. The ANMS GCSI-DD questionnaire was completed daily for at least 14 days prior to randomization (Day 1); • Days −10 to −3: The ANMS GCSI-DD questionnaire was completed daily. A GEBT was performed on a single day within this window, with breath samples obtained twice prior to consumption of a standardized, carbon-13 (^13C)-enriched meal and then at 45, 90, 120, 150, 180, and 240 minutes after meal consumption after an 8-hour fast. […] On Day 14 (±2 days), the PAGI-SYM and Clinical Grading Assessment questionnaires were completed prior to the final dose of study drug. • A GEBT was administered 30 minutes after study drug administration on Day 14 (±2 days). Breath samples were obtained twice prior to ^13C-enriched meal consumption and then at 45, 90, 120, 150, 180, and 240 minutes after meal consumption after an 8-hour fast. If a subject withdrew from the study prior to the Day 14 (±2 days) GEBT, attempts should have been made to perform a GEBT on the last day of study drug administration. Clinical Grading Assessment Scales were also performed.\nThe ANMS GCSI-DD covers 5 core relevant symptoms of gastroparesis: nausea, early satiety, postprandial fullness, upper abdominal pain, and vomiting. Bloating is included as an exploratory symptom. Symptoms are rated on a severity numeric response scale from 0 (none) to 4 (very severe). Vomiting is captured on a frequency response scale and scored as follows: 0 for no episodes, 1 for 1 episode, 2 for 2 episodes, 3 for 3 episodes, and 4 for 4 or more episodes. Subjects were asked to recall symptoms over the previous 24 hours and complete the ANMS GCSI-DD patient-reported symptom questionnaire for at least 14 days prior to randomization, on the day of randomization, and daily from Days 1 to 14 (±2 days)."}}}
{"smiles": "[2H]c1c([2H])c([2H])c2c([nH]c(=O)n2CCCN2CCC(n3c(=O)[nH]c4cc(Cl)ccc43)CC2)c1[2H]", "note": "[Deudomperidone, 1-{3-[4-(5-chloro-2-oxo-2,3-dihydro-1H-1,3-benzodiazol-1-yl)piperidin-1yl]propyl}-2,3-dihydro(4,5,6,7-D4)-1H-1,3-benzodiazol-2-one]", "values": [{"measurement": "estimated slope of concentration-QTc relationship, Model B", "setting": "[1]", "result": 0.79, "unit": "ms per ng/mL"}, {"measurement": "plasma concentration up to which an effect on ΔΔQTcF exceeding 10 ms can be excluded", "setting": "[1]", "result": "~92", "unit": "ng/mL"}, {"measurement": "treatment effect-specific intercept, Model B", "setting": "[1]", "result": -0.03, "unit": "ms"}, {"measurement": "ANMS GCSI-DD bloating subscale score, Day 14/EOT, mean", "setting": "[2]; 5 mg BID, Cohort 3, ITT", "result": 2.33}, {"measurement": "ANMS GCSI-DD bloating subscale score, change from baseline to Day 14/EOT", "setting": "[2]; 5 mg BID, Cohort 3, ITT", "result": "−0.37"}, {"measurement": "ANMS GCSI-DD bloating subscale score, percent change from baseline to Day 14/EOT", "setting": "[2]; 5 mg BID, Cohort 3, ITT", "result": "−16.16", "unit": "%"}, {"measurement": "ANMS GCSI-DD nausea/vomiting subscale score, Day 14/EOT, mean", "setting": "[2]; 5 mg BID, Cohort 3, ITT", "result": 1.00}, {"measurement": "ANMS GCSI-DD nausea/vomiting subscale score, change from baseline to Day 14/EOT", "setting": "[2]; 5 mg BID, Cohort 3, ITT", "result": "−0.52"}, {"measurement": "ANMS GCSI-DD nausea/vomiting subscale score, percent change from baseline to Day 14/EOT", "setting": "[2]; 5 mg BID, Cohort 3, ITT", "result": "−41.08", "unit": "%"}, {"measurement": "ANMS GCSI-DD postprandial fullness/early satiety subscale score, Day 14/EOT, mean", "setting": "[2]; 5 mg BID, Cohort 3, ITT", "result": 2.00}, {"measurement": "ANMS GCSI-DD postprandial fullness/early satiety subscale score, change from baseline to Day 14/EOT", "setting": "[2]; 5 mg BID, Cohort 3, ITT", "result": "−0.78"}, {"measurement": "ANMS GCSI-DD postprandial fullness/early satiety subscale score, percent change from baseline to Day 14/EOT", "setting": "[2]; 5 mg BID, Cohort 3, ITT", "result": "−29.47", "unit": "%"}, {"measurement": "ANMS GCSI-DD total score, Day 14/EOT, mean", "setting": "[2]; 5 mg BID, Cohort 3, ITT", "result": 1.78}, {"measurement": "ANMS GCSI-DD total score, change from baseline to Day 14/EOT", "setting": "[2]; 5 mg BID, Cohort 3, ITT", "result": "−0.56"}, {"measurement": "ANMS GCSI-DD total score, percent change from baseline to Day 14/EOT", "setting": "[2]; 5 mg BID, Cohort 3, ITT", "result": "−26.84", "unit": "%"}, {"measurement": "ANMS GCSI-DD bloating subscale score, Day 14/EOT, mean", "setting": "[2]; 10 mg BID, Cohort 1, ITT", "result": 1.76}, {"measurement": "ANMS GCSI-DD bloating subscale score, change from baseline to Day 14/EOT", "setting": "[2]; 10 mg BID, Cohort 1, ITT", "result": "−1.08"}, {"measurement": "ANMS GCSI-DD bloating subscale score, percent change from baseline to Day 14/EOT", "setting": "[2]; 10 mg BID, Cohort 1, ITT", "result": "−41.78", "unit": "%"}, {"measurement": "ANMS GCSI-DD nausea/vomiting subscale score, Day 14/EOT, mean", "setting": "[2]; 10 mg BID, Cohort 1, ITT", "result": 0.74}, {"measurement": "ANMS GCSI-DD nausea/vomiting subscale score, change from baseline to Day 14/EOT", "setting": "[2]; 10 mg BID, Cohort 1, ITT", "result": "−0.89"}, {"measurement": "ANMS GCSI-DD nausea/vomiting subscale score, percent change from baseline to Day 14/EOT", "setting": "[2]; 10 mg BID, Cohort 1, ITT", "result": "−52.41", "unit": "%"}, {"measurement": "ANMS GCSI-DD postprandial fullness/early satiety subscale score, Day 14/EOT, mean", "setting": "[2]; 10 mg BID, Cohort 1, ITT", "result": 1.71}, {"measurement": "ANMS GCSI-DD postprandial fullness/early satiety subscale score, change from baseline to Day 14/EOT", "setting": "[2]; 10 mg BID, Cohort 1, ITT", "result": "−1.16"}, {"measurement": "ANMS GCSI-DD postprandial fullness/early satiety subscale score, percent change from baseline to Day 14/EOT", "setting": "[2]; 10 mg BID, Cohort 1, ITT", "result": "−41.38", "unit": "%"}, {"measurement": "ANMS GCSI-DD total score, Day 14/EOT, mean", "setting": "[2]; 10 mg BID, Cohort 1, ITT", "result": 1.40}, {"measurement": "ANMS GCSI-DD total score, change from baseline to Day 14/EOT", "setting": "[2]; 10 mg BID, Cohort 1, ITT", "result": "−1.04"}, {"measurement": "ANMS GCSI-DD total score, percent change from baseline to Day 14/EOT", "setting": "[2]; 10 mg BID, Cohort 1, ITT", "result": "−43.64", "unit": "%"}, {"measurement": "ANMS GCSI-DD bloating subscale score, Day 14/EOT, mean", "setting": "[2]; 20 mg QD, Cohort 2, ITT", "result": 1.47}, {"measurement": "ANMS GCSI-DD bloating subscale score, change from baseline to Day 14/EOT", "setting": "[2]; 20 mg QD, Cohort 2, ITT", "result": "−1.40"}, {"measurement": "ANMS GCSI-DD bloating subscale score, percent change from baseline to Day 14/EOT", "setting": "[2]; 20 mg QD, Cohort 2, ITT", "result": "−51.82", "unit": "%"}, {"measurement": "ANMS GCSI-DD nausea/vomiting subscale score, Day 14/EOT, mean", "setting": "[2]; 20 mg QD, Cohort 2, ITT", "result": 0.40}, {"measurement": "ANMS GCSI-DD nausea/vomiting subscale score, change from baseline to Day 14/EOT", "setting": "[2]; 20 mg QD, Cohort 2, ITT", "result": "−1.20"}, {"measurement": "ANMS GCSI-DD nausea/vomiting subscale score, percent change from baseline to Day 14/EOT", "setting": "[2]; 20 mg QD, Cohort 2, ITT", "result": "−67.94", "unit": "%"}, {"measurement": "ANMS GCSI-DD postprandial fullness/early satiety subscale score, Day 14/EOT, mean", "setting": "[2]; 20 mg QD, Cohort 2, ITT", "result": 1.37}, {"measurement": "ANMS GCSI-DD postprandial fullness/early satiety subscale score, change from baseline to Day 14/EOT", "setting": "[2]; 20 mg QD, Cohort 2, ITT", "result": "−1.38"}, {"measurement": "ANMS GCSI-DD postprandial fullness/early satiety subscale score, percent change from baseline to Day 14/EOT", "setting": "[2]; 20 mg QD, Cohort 2, ITT", "result": "−50.14", "unit": "%"}, {"measurement": "ANMS GCSI-DD total score, Day 14/EOT, mean", "setting": "[2]; 20 mg QD, Cohort 2, ITT", "result": 1.08}, {"measurement": "ANMS GCSI-DD total score, change from baseline to Day 14/EOT", "setting": "[2]; 20 mg QD, Cohort 2, ITT", "result": "−1.33"}, {"measurement": "ANMS GCSI-DD total score, percent change from baseline to Day 14/EOT", "setting": "[2]; 20 mg QD, Cohort 2, ITT", "result": "−55.24", "unit": "%"}, {"measurement": "ANMS GCSI-DD total score and all subscale scores at Day 14/End of Treatment", "setting": "[2]; all deudomperidone treatment groups, placebo also decreased", "result": "decreased from baseline"}]}
